Molecular target: T1, IRAK4 (Homo sapiens, UniProt Q9NWZ3)
T1 sequence (Q9NWZ3 1-460): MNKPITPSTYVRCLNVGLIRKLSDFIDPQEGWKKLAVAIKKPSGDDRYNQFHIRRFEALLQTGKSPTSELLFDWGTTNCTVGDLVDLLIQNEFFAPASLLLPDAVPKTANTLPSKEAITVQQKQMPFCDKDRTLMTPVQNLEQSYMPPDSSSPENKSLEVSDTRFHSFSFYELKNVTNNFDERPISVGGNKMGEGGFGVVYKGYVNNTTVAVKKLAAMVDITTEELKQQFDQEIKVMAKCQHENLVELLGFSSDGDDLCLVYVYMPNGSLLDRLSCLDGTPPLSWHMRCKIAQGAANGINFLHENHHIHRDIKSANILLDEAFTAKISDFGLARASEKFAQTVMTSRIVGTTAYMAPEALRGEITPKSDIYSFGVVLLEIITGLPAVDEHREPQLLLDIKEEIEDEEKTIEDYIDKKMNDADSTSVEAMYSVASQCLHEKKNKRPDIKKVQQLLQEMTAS
Experiment: HotSpot kinase assay
Assay type: biochemical

SMILES: COc1cc(N2CCN(C(=O)CCCC(=O)Nc3cccc4c3CN(C3CCC(=O)NC3=O)C4=O)CC2)ccc1NC(=O)c1cccc(-c2cc[nH]n2)n1 (stereo not shown) [PSP-0119, N-(4-(4-(5-((2-(2,6-dioxopiperidin-3-yl)-1-oxoisoindolin-4-yl)amino) −5-oxopentanoyl)piperazin-1-yl)-2-methoxyphenyl)-6-(1H-pyrazol-3-yl)picolinamide]
- IC50: 2.83 nM
